# Assay results taken from patent US9936700B2, “Substituted quinoxaline derivatives as pest control agent” (BAYER CROPSCIENCE AKTIENGESELLSCHAFT, priority 2013, dated 2018).
# Assay: log P by reversed-phase HPLC (EEC Directive 79/831 Annex V.A8)
# Format: physicochemical
# Conditions: for chromatographic logP: reversed-phase C18 HPLC column, read-out: logP [a] = log P (HCOOH)
# From the text: NMR data and log P values: log P (HCOOH)=log P[a] log P (neutral)=log P[b]
# ^[a] […] Called log P (HCOOH) in the table.
# ^[b] […] Called log P (neutral) in the table.
# [1] = acidic range, pH 2.7, 0.1% aqueous formic acid/acetonitrile
# [2] = neutral range, pH 7.8, aqueous ammonium hydrogencarbonate/acetonitrile
Compound,logP [a] = log P (HCOOH) (pH 2.7),logP [b] = log P (neutral) (pH 7.8),also measured
"CCSc1ccccc1-c1nc2ccc(C(F)(F)F)cc2nc1Cl [Example I-3, 3-Chloro-2-[2-(ethylsulfanyl)phenyl]-6-(trifluoromethyl)quinoxaline]",–,–,chromatographic logP [1]: 5.2
"FC1(F)Oc2cc3ncc(-c4ccc(C(F)(F)F)cc4)nc3cc2O1 [Example I-5, 2,2-Difluoro-6-[4-(trifluoromethyl)phenyl][1,3]dioxolo [4,5-g]quinoxaline]",–,–,chromatographic logP [1]: 5.02
"[O-][n+]1cc(-c2ccc(C(F)(F)F)cc2)nc2cc3c(cc21)OC(F)(F)O3 [Example I-6, 2,2-Difluoro-7-[4-(trifluoromethyl)phenyl][1,3]dioxolo [4,5-g]quinoxaline 5-oxide]",–,–,chromatographic logP [1]: 4.12
Cc1cnccc1-c1cnc2ccc(S(C)(=O)=O)cc2n1 [Example I-13],0.72,1.34,–
CSc1ccccc1-c1cnc2cc(C(F)(F)F)ccc2n1 [Example I-16],4.45,4.31,–
Cc1cnccc1-c1cnc2cc(Cl)ccc2n1 [Example I-17],1.69,2.58,–
Clc1ccc2nc(-c3cncnc3)cnc2c1 [Example I-19],2.01,–,–
CCSc1ccccc1-c1cnc2cc(Cl)ccc2n1 [Example I-23],4.56,–,–
CS(=O)(=O)c1ccccc1-c1cnc2cc(Cl)ccc2n1 [Example I-28],2.52,2.52,–
CCSc1ccccc1-c1cnc2ccc(S(C)(=O)=O)cc2n1 [Example I-35],2.85,2.78,–
Cc1cnccc1-c1nc2ccc(C(F)(F)F)cc2nc1Cl [Example I-37],2.94,–,–
Cc1cnccc1-c1nc2cc(C(F)(F)F)ccc2nc1Cl [Example I-38],2.88,–,–
Clc1ccc2nc(-c3ccncc3Cl)cnc2c1 [Example I-39],2.99,–,–
Cc1cnccc1-c1cnc2cc(Cl)c(Cl)cc2n1 [Example I-41],2.51,3.29,–
CCSc1ccccc1-c1cnc2cc(Cl)c(Cl)cc2n1 [Example I-42],5.38,5.48,–
Cc1cscc1-c1cnc2ccc(C(F)(F)F)cc2n1 [Example I-44],4.57,–,–
Cc1cscc1-c1cnc2cc(C(F)(F)F)ccc2n1 [Example I-45],4.57,–,–
Cc1ccccc1-c1cnc2ccc(C(F)(F)F)cc2n1 [Example I-47],–,–,logP [a] = log P (HCOOH) [1]: 4.47; logP [b] = log P (neutral) [2]: 4.41
Cn1nccc1-c1cnc2cc(C(F)(F)F)ccc2n1 [Example I-49],–,–,logP [a] = log P (HCOOH) [1]: 3.07; logP [b] = log P (neutral) [2]: 3.05
Cn1nccc1-c1cnc2ccc(C(F)(F)F)cc2n1 [Example I-50],–,–,logP [a] = log P (HCOOH) [1]: 3.02; logP [b] = log P (neutral) [2]: 3.00
Cc1cccnc1-c1cnc2cc(C(F)(F)F)ccc2n1 [Example I-52],3.69,–,–
FC(F)(F)c1ccc2nc(Cl)c(-c3ccc(Cl)cc3)nc2c1 [Example I-53],–,–,logP [a] = log P (HCOOH) [1]: 5.31
Cc1ccc(-c2c[n+]([O-])c3ccc(C(F)(F)F)cc3n2)c(F)c1 [Example I-54],4.04,4.00,–
Cc1c[n+]([O-])ccc1-c1c[n+]([O-])c2cc(C(F)(F)F)ccc2n1 [Example I-55],–,–,logP [a] = log P (HCOOH) [1]: 1.59
Cc1cnccc1-c1cnc2cc(C#N)ccc2n1 [Example I-56],1.17,1.81,–
